Measurements reported in US3994882A, “Nitrofuran derivatives, process for the preparation thereof and compositions containing same as active ingredient” (Kabushiki Kaisha Ueno Seiyaku Oyo Kenkyujo, priority 1974, dated 1976).
Converted amounts (≈) assume the structure as drawn.

Columns and labels:
vibroid ulcers = assay: Medicinal bath of young yellowtail with disease seeming to be vibroid ulcers; format: in vivo; details: of 30 fishes; 10 ppm seawater bath 10 minutes; reared further 20 days; untreated group 3 survivors
Protocol: In raising young yellowtail of a body length about 10-15 cm, since a disease seeming to be vibroid ulcers started to appear, 90 of the fishes were collected and divided into three groups. The first group of 30 fishes were reared as heretofore practiced with no change. On the other hand, the second and third groups of 30 fishes were placed for 10 minutes in respectively medicinal baths containing seawater solutions of 10 ppm of the compound of Example 1 ##SPC40##
and the compound of Example 9 ##SPC41##
following which the respective groups of fishes were returned to normal seawater where they were reared for a further 20 days. The number of fishes surviving in the case of the first group was three fishes, whereas in the case of the second and third groups, the numbers of fishes surviving were 26 and 25 fishes, respectively.

[1] = test system: Streptococcus hemolyticus A 089; assay: Curative action in infected mice (Table 4); format: in vivo; details: Streptococcus pyogenes, A089, 168 h, mice infected abdominally, oral in 5% gum arabic, observation one week
Protocol: (§1) Next, in Table 4 are shown the curative actions (ED50 mg/Kg body wt.) and acute toxicities (LD50 mg/kg body wt.) of the typical nitrofuran derivatives of the present invention when used with infected mice.
(§2) Note.- The numerical values in the table denote the amounts per unit body
(§3) weight of the nitrofuran derivatives required for cure when the experimen
(§4) was carried out using mice of body weight of about 20 grams and injecting
(§5) thereinto abdominally the microorganism-containing solutions in amounts o
(§6) 0.2 ml (the microorganism-containing solutions used being those in the
(§7) cases of test microorganisms 1, 3 and 4 in which the microorganism cultur
(§8) liquids were diluted 10^5, 5 and 10^2 times, respectively, and in
(§9) the case of test microorganism 2 that which was concentrated 2 times),
(§10) after which the nitrofuran derivatives suspended in 5% gum arabic were
(§11) forcedly administered orally followed by observation for one week.

[2] = test system: Staphylococcus aureus 72r; assay: Curative action in infected mice (Table 4); format: in vivo; details: 168 h, mice infected abdominally, oral in 5% gum arabic, observation one week
Protocol: as §1, §2, §3, §4, §5, §6, §7, §8, §9, §10, §11

[3] = test system: Salmonella typhimium K-52; assay: Curative action in infected mice (Table 4); format: in vivo; details: K52, 168 h, mice infected abdominally, oral in 5% gum arabic, observation one week
Protocol: as §1, §2, §3, §4, §5, §6, §7, §8, §9, §10, §11

Escherichia coli K-74 = assay: Curative action in infected mice (Table 4); format: in vivo; details: K74, 168 h, mice infected abdominally, oral in 5% gum arabic, observation one week
Protocol: as §1, §2, §3, §4, §5, §6, §7, §8, §9, §10, §11

Vibrio anguillarum K-3 = assay: Minimum growth inhibiting concentration, microorganisms that infect fish (Table 3); format: cell-based; details: K3, 3% NaCl added ordinary agar, 25° C., 24 hours
Protocol: (§12) The minimum growth inhibiting concentrations were measured under indentical contitions as in the case of Table 1. The culture temperature was 25° C., the culture being carried out for 48 hours in the asterisked case and 24 hours in the other cases.

Aeromonas liquefaciens = assay: as above; format: cell-based; details: Aeromonas hydrophila, 0.5% NaCl added ordinary agar, 25° C., 24 hours
Protocol: as §12

Pasteurella piricida SU = assay: as above; format: cell-based; details: 2% NaCl added brain-heat infusion agar, 25° C., 24 hours
Protocol: as §12

Vibrio panulirus Vp-M-1 = assay: as above; format: cell-based; details: VPM1, 3% NaCl added ordinary agar, 25° C., 24 hours
Protocol: as §12

Aeromonas punctata = assay: as above; format: cell-based; details: Aeromonas caviae, 0.5% NaCl added ordinary agar, 25° C., 24 hours
Protocol: as §12

Aeromonas salmonicida = assay: as above; format: cell-based; details: 0.5% NaCl added ordinary agar, 25° C., 24 hours
Protocol: as §12

Vibrio sp. Sp-1 = assay: as above; format: cell-based; details: SP.SP1, 3% NaCl added ordinary agar, 25° C., 24 hours
Protocol: as §12

[4] = test system: Chondrococcus columnaris Ek-23; assay: as above; format: cell-based; details: Flavobacterium columnare, EK23, 0.5% NaCl added TSB agar, 25° C., 48 hours (asterisked)
Protocol: as §12

[5] = test system: Vibrio piscium var. Japonicus; assay: as above; format: cell-based; details: Vibrio anguillarum, 0.5% NaCl added ordinary agar, 25° C., 24 hours
Protocol: as §12

[6] = test system: Salmonella pullorum NIAH 5159; assay: Effectiveness in preventing infection by Salmonella pullorum in chicks (Table 6); format: in vivo; details: 7 days, chicks with germs isolated / chicks tested
Protocol: A culture liquid obtained by cultivating Salmonella pullorum NIAH 5159 in a YCCB culture medium for 20 hours at 37° C. was injected into the cloaca of 2-day-old chicks at the rate of 0.2 ml per chick. Nitrofuran derivatives in total amounts indicated below were then mixed with the feed, and the so mixed feed was fed to the chicks for 7 days. The chicks were then sacrificed, and the liver and/or spleen were homogenized, following which the product was cultivated for 48 hours at 37° C. in a YCCB culture medium in customary manner. The expression, "rate of germ isolation" used in the table has the following meaning. For instance, the value 4/10 means the germs were isolated from four out of the ten chicks submitted to the test.

[7] = Acute toxicity in mice (Table 4); details: mouse, in vivo, po
Protocol: as §1

[8] = test system: Salmonella pullorum chuyu 114; assay: Minimum growth inhibiting concentration (Table 1); format: cell-based; details: Salmonella enterica, TSBI, pH 7.2, 37° C., 48 hours
Protocol: (§13) For information, the minimum growth inhibiting concentration is a value
(§14) concerning microorganisms cultivated in TSBI the pH of which was adjusted
(§15) to 7.2, each bacteria being incubated at 37° C. for 48 hours.

[9] = test system: Staphylococcus aureus 209P; assay: Minimum growth inhibiting concentration (Table 1); format: cell-based; details: TSBI, pH 7.2, 37° C., 48 hours
Protocol: as §13, §14, §15

[10] = test system: Klebsiella pneumoniae ST-101; assay: Minimum growth inhibiting concentration (Table 1); format: cell-based; details: ST101, TSBI, pH 7.2, 37° C., 48 hours
Protocol: as §13, §14, §15

[11] = test system: Salmonella enteritidis 1891; assay: Minimum growth inhibiting concentration (Table 1); format: cell-based; details: Salmonella enterica, TSBI, pH 7.2, 37° C., 48 hours
Protocol: as §13, §14, §15

[12] = test system: Streptococcus hemolyticus A 089; assay: Minimum growth inhibiting concentration (Table 1); format: cell-based; details: Streptococcus pyogenes, A089, TSBI, pH 7.2, 37° C., 48 hours
Protocol: as §13, §14, §15

Proteus vulgaris HX-19 = assay: Minimum growth inhibiting concentration (Table 1); format: cell-based; details: HX19, TSBI, pH 7.2, 37° C., 48 hours
Protocol: as §13, §14, §15

Bacillus Subtilis PCI219 = assay: Minimum growth inhibiting concentration (Table 1); format: cell-based; details: TSBI, pH 7.2, 37° C., 48 hours
Protocol: as §13, §14, §15

[13] = test system: Diplococcus pneumoniae DP-1; assay: Minimum growth inhibiting concentration (Table 1); format: cell-based; details: Streptococcus pneumoniae, DP1, TSBI, pH 7.2, 37° C., 48 hours
Protocol: as §13, §14, §15

In the case of `O=C(NCC(O)CO)c1ccc(C=Cc2ccc([N+](=O)[O-])o2)cc1` (centres unmarked) [Example 9, 3-Para-[2'-(5"-nitro-2"-furyl)-vinyl]-benzoylamino-1,2-propanediol], the “Number of fishes surviving” value (vibroid ulcers) is reported as 25 fishes, the ED50 [1] is reported as 15 mg/kg and the ED50 [2] is reported as 21 mg/kg. The ED50 [3] was 100 mg/kg, the ED50 (Escherichia coli K-74) was 10 mg/kg and the MIC (Vibrio anguillarum K-3) was 0.037 µg/mL (≈ 0.111 µM). For the same molecule, the MIC (Aeromonas liquefaciens) was 0.037 µg/mL (≈ 0.111 µM), the MIC (Pasteurella piricida SU) was 0.037 µg/mL (≈ 0.111 µM) and the MIC (Vibrio panulirus Vp-M-1) was 0.009 µg/mL (≈ 0.0271 µM). It also gave an MIC (Aeromonas punctata) of 0.25 µg/mL (≈ 0.752 µM), an MIC (Aeromonas salmonicida) of 0.018 µg/mL (≈ 0.0542 µM) and an MIC (Vibrio sp. Sp-1) of 0.018 µg/mL (≈ 0.0542 µM). For the same molecule, the MIC [4] was 0.0037 µg/mL (≈ 0.0111 µM), the MIC [5] was < 0.015 µg/mL and the “Rate of germ isolation” value ([6]; 50 ppm in feed) was 4/10. The “Rate of germ isolation” value ([6]; 100 ppm in feed) was 4/10, the “Rate of germ isolation” value ([6]; 200 ppm in feed) was 3/10 and the “Rate of germ isolation” value ([6]; 400 ppm in feed) was 2/10. The “Rate of germ isolation” value ([6]; 800 ppm in feed) was 1/10, the LD50 [7] was > 2000 mg/kg and the MIC [8] was 6.25 µg/mL (≈ 18.8 µM). The MIC [9] was 0.78 µg/mL (≈ 2.35 µM), the MIC [10] was 6.25 µg/mL (≈ 18.8 µM) and the MIC [11] was 1.56 µg/mL (≈ 4.69 µM). For the same molecule, the MIC [12] was < 0.19 µg/mL, the MIC (Proteus vulgaris HX-19) was 6.25 µg/mL (≈ 18.8 µM) and the MIC (Bacillus Subtilis PCI219) was < 0.19 µg/mL. The MIC [13] was < 0.19 µg/mL.
With `O=C(NCCO)c1ccc(C=Cc2ccc([N+](=O)[O-])o2)cc1` [Example 1, 2-Para-[2'-(5"-nitro-2"-furyl)-vinyl]-benzoylaminoethanol] the “Number of fishes surviving” value (vibroid ulcers) was 26 fishes, the ED50 [1] was 8 mg/kg and the ED50 [2] was 14 mg/kg. It also gave an ED50 [3] of 75 mg/kg, an ED50 (Escherichia coli K-74) of 14 mg/kg and an MIC (Vibrio anguillarum K-3) of 0.018 µg/mL (≈ 0.0595 µM). It also gave an MIC (Aeromonas liquefaciens) of 0.062 µg/mL (≈ 0.205 µM), an MIC (Pasteurella piricida SU) of 0.037 µg/mL (≈ 0.122 µM) and an MIC (Vibrio panulirus Vp-M-1) of 0.009 µg/mL (≈ 0.0298 µM). It also gave an MIC (Aeromonas punctata) of 0.125 µg/mL (≈ 0.414 µM), an MIC (Aeromonas salmonicida) of 0.018 µg/mL (≈ 0.0595 µM) and an MIC (Vibrio sp. Sp-1) of 0.018 µg/mL (≈ 0.0595 µM). For the same molecule, the MIC [4] was 0.0037 µg/mL (≈ 0.0122 µM), the MIC [5] was < 0.015 µg/mL and the “Rate of germ isolation” value ([6]; 50 ppm in feed) was 4/10. The “Rate of germ isolation” value ([6]; 100 ppm in feed) was 4/10, the “Rate of germ isolation” value ([6]; 200 ppm in feed) was 3/10 and the “Rate of germ isolation” value ([6]; 400 ppm in feed) was 2/10. For the same molecule, the “Rate of germ isolation” value ([6]; 800 ppm in feed) was 0/10, the LD50 [7] was 1500 mg/kg and the MIC [8] was 3.13 µg/mL (≈ 10.4 µM). It also gave an MIC [9] of 0.78 µg/mL (≈ 2.58 µM), an MIC [10] of 3.13 µg/mL (≈ 10.4 µM) and an MIC [11] of 1.56 µg/mL (≈ 5.16 µM). The MIC [12] was < 0.19 µg/mL, the MIC (Proteus vulgaris HX-19) was 3.13 µg/mL (≈ 10.4 µM) and the MIC (Bacillus Subtilis PCI219) was < 0.19 µg/mL. For the same molecule, the MIC [13] was 0.78 µg/mL (≈ 2.58 µM).
